{"source": "patent US20050143291A1", "about": "“Methods and compositions for modulating apoptosis” (priority 2003, published 2005)", "key": {"CHO cells [1]": {"system": "CHO cells", "assay": "Annexin V staining and FACS analysis, CHO cells", "type": "cell-based, Chinese hamster", "conditions": "30 μM etoposide for 6 h", "source_text": "(§1) FIG. 3, Panel A depicts GRP78 overexpression protecting cells from etoposide-induced apoptosis. […] Viable cells are those with low annexin or no annexin and PI staining (lower left panel). Early stage apoptotic cells are represented by high annexin and low PI staining (lower right panel), later stage apoptotic cells represented by high annexin and high PI staining (upper right panel), and necrosis is represented by cells with high PI and low annexin staining (upper left panel).\n(§2) Annexin V Staining and FACS Analysis—CHO, C.1, and T24/83 cells were trypsinized, washed twice with ice-cold PBS, pH 7.4, and resuspended in […] binding buffer (10 mM HEPES, pH 7.4, 140 mM NaCl, 2.5 mM CaCl2 at a concentration of 1×10^6 cells/ml. One hundred μl of cell suspension was transferred to 5-ml plastic tubes, and 5 μl of annexin V-fluorescein isothiocyanate (PharMingen) and 4 μl of 0.5 mg/ml PI were added. The cells were gently vortexed and incubated in the dark at room temperature for 20 min. Four hundred μl of binding buffer was added to each tube, and annexin V staining was analyzed by flow cytometry within 1 h. Cells negative for both PI and annexin V staining are live cells, annexin V positive staining cells are early apoptotic cells, and PI positive and annexin V positive staining cells are primarily cells in late stages of apoptosis.\n(§3) The apoptotic cells were identified by annexin V labeling."}, "Control cells": {"system": "Control cells", "assay": "% Survival (Colony Assay), control cells", "type": "cell-based", "protocol": "(§4) Experiments were also performed to determine the anti-apoptotic effect conferred by overexpression of GRP78. This task was completed.\n(§5) Clonogenic Survival Assays—Four thousand cells were seeded into 10-cm-diameter dishes. […] After drug treatment, the cells were grown in fresh medium for 10 to 14 days. The colonies were washed with ice-cold PBS, fixed with methanol, and stained with 10% Giemsa staining solution. The surviving fraction was determined by dividing the number of the surviving colonies in the drug-treated cells by the number of colonies in the non-treated control groups."}, "[2]": {"system": "C.1 cells (CHO derivative overexpressing GRP78)", "assay": "Annexin V staining and FACS analysis, C.1 cells", "type": "cell-based, Chinese hamster", "conditions": "30 μM etoposide for 6 h", "source_text": "as §1, §2, §3"}, "T24/83-GRP78 cells [3]": {"system": "T24/83-GRP78 cells", "assay": "Clonogenic survival assays, T24/83 cells overexpressing GRP78", "type": "cell-based, human", "conditions": "versus T24/83-pcDNA cells", "protocol": "as §5"}, "T24/83-pcDNA cells": {"system": "T24/83-pcDNA cells", "assay": "Annexin V staining and FACS analysis, T24/83-pcDNA cells", "type": "cell-based, human", "conditions": "versus non-treated", "protocol": "as §2\n(§6) A pair of stably transfected human transitional bladder carcinoma T24/83 cell lines selected and cultured under identical conditions, were used to determine the effect of GRP overexpression on neoplastic cells. The cell line, referred to as T24/83-GRP78, overexpressed human GRP78, and the other line, referred to as T24/83-pcDNA, was stably transfected with the empty expression vector pcDNA (28)."}, "endogenous GRP78": {"system": "endogenous GRP78", "assay": "Immunoblot of endogenous GRP78 in MDA-MB-435 cells infected with 320 bp AS adenovirus, with or without etoposide", "type": "cell-based, human", "conditions": "mock-infected, etoposide treatment by itself", "protocol": "The same cells were infected with the GFP negative control adenovirus. […] Thus, both the full length and the 320 bp version of the AS construct targeted against GRP78 blocked expression of GRP78 in a 293T test system.\nWestern Blotting—The cell lysate was prepared in radioimmune precipitation assay buffer and subjected to immunoblot with antibodies against GRP78, GRP94, topoisomerase II, caspase-7, and α-actin as described. Nitrocellulose membranes containing the transferred proteins were blocked in Tris-buffered saline containing 5% non-fat dry milk and 0.1% Tween 20 for 1 h at room temperature and were probed with the respective primary antibodies. For GRP78, an anti-KDEL mouse monoclonal antibody (SPA-827), an anti-GRP78 rabbit polyclonal antibody directed against the carboxyl ten amino acids of rat GRP78 (SPA-826) (StressGen, Victoria, Canada), or an anti-hamster GRP78 rabbit polyclonal antibody at 1:3000, 1:2000, and 1:5000 dilution, respectively, was used. […]"}, "T24/83-GRP78 cells [4]": {"system": "T24/83-GRP78 cells", "assay": "Annexin V staining and FACS analysis, T24/83-GRP78 cells", "type": "cell-based, human", "conditions": "versus non-treated", "protocol": "as §2, §6"}, "CHO cells [5]": {"system": "CHO cells", "assay": "DNA fragmentation assay, CHO cells", "type": "cell-based, Chinese hamster", "conditions": "etoposide-treated CHO cells, compared with C.1 cells; 100 μM for 12 h, harvested after 48 h", "protocol": "The DNA fragmentation assays were performed using an apoptosis DNA ladder kit (Roche Molecular Biochemicals) according to manufacturer's instructions.\nas §3"}, "[6]": {"system": "GRP78 Overexpression cells", "assay": "% Survival (Colony Assay), GRP78 overexpression", "type": "cell-based", "conditions": "for % Survival (Colony Assay): GRP78 Overexpression", "protocol": "as §4, §5"}, "caspase-7": {"system": "caspase-7", "assay": "Caspase-7 activation in etoposide-treated CHO cells (Western blot)", "type": "cell-based, Chinese hamster", "conditions": "100 μM etoposide for 6 h, harvested after 24 h", "protocol": "FIG. 5, Panel A depicts the effect of GRP78 overexpression on topoisomerase II expression and caspase-7 activation. Total protein lysates were prepared from non-treated (Ctrl) or etoposide-treated (Etop) CHO and C.1 cells.\nAmong the executor caspases, caspase-7 has been reported to be associated with the ER. Upon induction of apoptosis, procaspase-7 (35 kDa) is first converted into a 32-kDa intermediate, which is further processed into active 20- and 11-kDa subunits. […] Upon longer exposure of the autoradiogram, the active 20- and 11-kDa forms were evident in the etoposide-treated cells. When GRP78 was overexpressed, a low level of caspase-7 activation was detected in both the non-treated and etoposide-treated cells. […] In addition, upon addition of cytochrome c, caspase-7 activation was higher in CHO cells than C.1 cells, as evidenced by the increase in the active 20- and 11-kDa forms in the CHO samples compared with the C.1 samples.\nThe cells were suspended in 5 volumes of a hypotonic buffer (5 mM Tris-HCl, pH 7.4, 5 mM KCl, 1.5 mM MgCl2, 0.1 mM EGTA, pH 8.0, and 1 mM dithiothreitol) in the presence of 2 μg/ml leupeptin, pepstatin, and aprotinin protease inhibitors. After incubation on ice for 20 min, sucrose was added to a final concentration of 250 mM, and the cells were disrupted by douncing eight times in a 1-ml Wheaton Dounce homogenizer. […]"}}, "data": [{"compound": "COc1cc([C@@H]2c3cc4c(cc3[C@@H](O[C@@H]3O[C@@H]5CO[C@@H](C)O[C@H]5[C@H](O)[C@H]3O)[C@H]3COC(=O)[C@H]23)OCO4)cc(OC)c1O", "note": "[Etoposide]", "values": [{"measurement": "percentage of apoptotic cells (annexin V labeling) upon etoposide treatment", "setting": "CHO cells [1]; non-treated 9%", "result": 90, "unit": "%"}, {"measurement": "increase of the percentage of apoptotic cells upon etoposide treatment", "setting": "CHO cells [1]; versus non-treated", "result": 10, "unit": "fold"}, {"measurement": "% Survival (Colony Assay)", "setting": "Control cells; etoposide 0.2 μM", "result": 71, "unit": "%"}, {"measurement": "% Survival (Colony Assay)", "setting": "Control cells; etoposide 0.4 μM", "result": 67, "unit": "%"}, {"measurement": "% Survival (Colony Assay)", "setting": "Control cells; etoposide 0.8 μM", "result": 26, "unit": "%"}, {"measurement": "% Survival (Colony Assay)", "setting": "Control cells; etoposide 1.6 μM", "result": 1.5, "unit": "%"}, {"measurement": "percentage of apoptotic cells (annexin V labeling) upon etoposide treatment", "setting": "[2]; non-treated 15%", "result": 70, "unit": "%"}, {"measurement": "increase of the percentage of apoptotic cells upon etoposide treatment", "setting": "[2]; versus non-treated", "result": 4.7, "unit": "fold"}, {"measurement": "resistance of T24/83 cells overexpressing GRP78 (clonogenic survival)", "setting": "T24/83-GRP78 cells [3]", "result": "more resistance"}, {"measurement": "increase of the percentage of annexin V-labeled cells by etoposide treatment", "setting": "T24/83-pcDNA cells", "result": 2.7, "unit": "fold"}, {"measurement": "reduction of the amount of endogenous GRP78", "setting": "endogenous GRP78", "result": "about 40%"}, {"measurement": "increase of the percentage of annexin V-labeled cells by etoposide treatment", "setting": "T24/83-GRP78 cells [4]", "result": 1.4, "unit": "fold"}, {"measurement": "DNA fragmentation", "setting": "CHO cells [5]", "result": "More extensive DNA fragmentation"}, {"measurement": "% Survival (Colony Assay)", "setting": "[6]; etoposide 0.2 μM", "result": 93, "unit": "%"}, {"measurement": "% Survival (Colony Assay)", "setting": "[6]; etoposide 0.4 μM", "result": 93, "unit": "%"}, {"measurement": "% Survival (Colony Assay)", "setting": "[6]; etoposide 0.8 μM", "result": 77, "unit": "%"}, {"measurement": "% Survival (Colony Assay)", "setting": "[6]; etoposide 1.6 μM", "result": 63, "unit": "%"}, {"measurement": "effect of GRP78 overexpression on sensitivity to the drug", "setting": "[6]; GRP78 overexpression versus control", "result": "confers resistance"}, {"measurement": "caspase-7 activation", "setting": "caspase-7", "result": "activation of caspase-7"}]}]}
